{"source": "ChEMBL document CHEMBL1129680", "about": "“Discovery of novel, non-peptide HIV-1 protease inhibitors by pharmacophore searching” (J Med Chem, 1996)", "key": {"[1]": {"target": "Human immunodeficiency virus type 1 protease (Human immunodeficiency virus 1) (UniProt Q72874)", "assay": "Evaluated for the inhibition of HIV-1 Protease."}, "[2]": {"target": "Human immunodeficiency virus type 1 reverse transcriptase (Human immunodeficiency virus 1) (UniProt Q72547)", "assay": "Inhibitory concentration against Reverse Transcriptase"}, "[3]": {"target": "Human immunodeficiency virus type 1 integrase (Human immunodeficiency virus 1) (UniProt Q7ZJM1)", "sequence (Q7ZJM1 as listed by the source)": "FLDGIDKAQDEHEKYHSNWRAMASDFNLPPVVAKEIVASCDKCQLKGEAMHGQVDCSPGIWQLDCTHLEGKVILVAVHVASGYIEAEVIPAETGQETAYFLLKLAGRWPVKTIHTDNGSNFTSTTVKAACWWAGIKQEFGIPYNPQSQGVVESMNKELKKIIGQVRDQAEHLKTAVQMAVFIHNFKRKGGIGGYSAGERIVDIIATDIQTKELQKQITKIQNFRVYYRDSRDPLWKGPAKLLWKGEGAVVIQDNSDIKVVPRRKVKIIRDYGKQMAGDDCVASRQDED", "assay": "Inhibitory concentration against HIV-1 Integrase 3' chain processing"}, "Homo sapiens [4]": {"species": "Homo sapiens", "assay": "Antiviral activity against HIV virus induced infection in human PBLs cells", "assay_type": "functional, cell-based"}, "Homo sapiens [5]": {"species": "Homo sapiens", "assay": "Cytotoxicitic activity […] in human PBLs cells", "assay_type": "functional, cell-based"}, "[6]": {"target": "Human immunodeficiency virus type 1 protease (Human immunodeficiency virus 1) (UniProt Q72874)", "description": "Inhibitory concentration against HIV-1 Protease"}, "[7]": {"target": "Human immunodeficiency virus type 1 protease (Human immunodeficiency virus 1) (UniProt Q72874)", "remark": "listed apart in the source"}, "[8]": {"assay": "Inhibition of compound against p7 nucleocapsid fluorescence intensity of the zinc finger ); NI = No inhibition", "assay_type": "functional"}, "[9]": {"target": "Human immunodeficiency virus type 1 integrase (Human immunodeficiency virus 1) (UniProt Q7ZJM1)", "assay": "Inhibitory concentration against HIV-1 Integrase 3' chain transfer"}}, "note": "Activity calls are given as the source filed them. The rule behind the calls is not given here."}
{"smiles": "CC(C)CC(NC(=O)OCc1ccccc1)(C(=O)O)C(=O)O", "values": [{"measurement": "ID50", "setting": "[1]", "result": 17, "unit": "µM"}]}
{"smiles": "O=c1oc2cccc(O)c2c(O)c1Cc1ccccc1", "values": [{"measurement": "ID50", "setting": "[1]", "result": 6, "unit": "µM"}]}
{"smiles": "CC1(C)CC[C@]2(C(=O)O)CC[C@]3(C)C(=CC[C@@H]4[C@@]5(C)C[C@H](O)[C@H](O)[C@@](C)(C(=O)O)[C@H]5CC[C@]43C)[C@@H]2C1", "values": [{"measurement": "ID50", "setting": "[1]", "result": 35, "unit": "µM"}]}
{"smiles": "O=c1oc2ccccc2c(O)c1-c1ccccc1", "values": [{"measurement": "ID50", "setting": "[1]", "result": 42, "unit": "µM"}]}
{"smiles": "O=C1C(O)=C(C(C2=C(O)C(=O)c3ccccc3C2=O)c2ccc(C(C3=C(O)C(=O)c4ccccc4C3=O)C3=C(O)C(=O)c4ccccc4C3=O)cc2)C(=O)c2ccccc21", "values": [{"measurement": "ID50", "setting": "[1]", "result": 0.75, "unit": "µM"}]}
{"smiles": "O=c1oc2c(-c3ccccc3)cccc2c(O)c1-c1ccccc1", "values": [{"measurement": "ID50", "setting": "[1]", "result": 13, "unit": "µM"}]}
{"smiles": "CC(=O)OC1CCC2(C)C(C)C(C)CCC2(O)C1O", "note": "(configuration not stated)", "values": [{"measurement": "ID50", "setting": "[1]", "result": 16, "unit": "µM"}]}
{"smiles": "O=c1c(C(c2ccc3c(c2)OCO3)c2c(O)oc3ccccc3c2=O)c(O)oc2ccccc12", "values": [{"measurement": "ID50", "setting": "[1]", "result": 30, "unit": "µM"}]}
{"smiles": "CCCCCCc1cc2c(cc1O)OC(=O)C(C(c1ccccc1)c1c(O)oc3cc(O)c(CCCCCC)cc3c1=O)C2O", "note": "(configuration not stated)", "values": [{"measurement": "ID50", "setting": "[1]", "result": 0.32, "unit": "µM"}]}
{"smiles": "O=C1Oc2ccccc2C(O)C1Sc1c(O)oc2ccccc2c1=O", "note": "(configuration not stated)", "values": [{"measurement": "ID50", "setting": "[1]", "result": 21, "unit": "µM"}]}
{"smiles": "O=c1c(C(c2ccc(C(c3c(O)oc4ccccc4c3=O)c3c(O)oc4ccccc4c3=O)cc2)c2c(O)oc3ccccc3c2=O)c(O)oc2ccccc12", "values": [{"measurement": "ID50", "setting": "[2]", "result": 7.1, "unit": "µM"}, {"measurement": "ID50", "setting": "[3]", "result": 1.5, "unit": "µM"}, {"measurement": "EC50", "setting": "Homo sapiens [4]", "result": 11.5, "unit": "µM"}, {"measurement": "IC50", "setting": "Homo sapiens [5]", "result": 54.8, "unit": "µM"}, {"measurement": "ID50", "setting": "[6]", "result": 1.7, "unit": "µM"}, {"measurement": "ID50", "setting": "[1]", "result": 1.7, "unit": "µM"}, {"measurement": "ID50", "setting": "[7]", "result": "inactive"}, {"measurement": "RFU", "setting": "[8]", "result": "inactive"}, {"measurement": "ID50", "setting": "[9]", "result": 0.7, "unit": "µM"}]}
{"smiles": "O=C(Oc1ccccc1)N(CCO)C(c1ccccc1)C(O)c1ccccc1", "note": "(configuration not stated)", "values": [{"measurement": "ID50", "setting": "[1]", "result": 32, "unit": "µM"}]}
{"smiles": "CC(=O)NC(Cc1ccsc1)(C(=O)O)C(=O)O", "values": [{"measurement": "ID50", "setting": "[1]", "result": 23, "unit": "µM"}]}
{"smiles": "CC(C)c1cccc(C(C)C)c1NC(=O)C(=O)CC(=O)CC(c1ccccc1)c1c(O)oc2ccccc2c1=O", "note": "(configuration not stated)", "values": [{"measurement": "ID50", "setting": "[1]", "result": 31, "unit": "µM"}]}
{"smiles": "O=C1C(O)=C(C(C2=C(O)C(=O)c3ccccc3C2=O)c2ccc(Cl)cc2Cl)C(=O)c2ccccc21", "values": [{"measurement": "ID50", "setting": "[1]", "result": 24, "unit": "µM"}]}
{"smiles": "CCCC(=O)C1=C(O)C(Cc2c(O)c(C)c(O)c(C(=O)CCC)c2O)=C(O)C(C)(C)C1=O", "values": [{"measurement": "ID50", "setting": "[1]", "result": 26, "unit": "µM"}]}
{"smiles": "Cc1cn([C@H]2C[C@H](N=[N+]=[N-])[C@@H](COP(=O)(O)OP(=O)(O)OP(=O)(O)O)O2)c(=O)[nH]c1=O", "values": [{"measurement": "ID50", "setting": "[1]", "result": 54, "unit": "µM"}]}
{"smiles": "O=C1C2=C(C(=O)c3ccccc31)C(O)(S(=O)(=O)O)C(O)(S(=O)(=O)O)C1N=CC=CC21", "note": "(configuration not stated)", "values": [{"measurement": "ID50", "setting": "[1]", "result": 2, "unit": "µM"}]}
{"smiles": "C[C@]12CCC(=O)C=C1CC[C@@H]1[C@@H]2[C@@H](O)C[C@@]2(C)[C@H]1CC[C@]2(O)C(=O)COC(=O)CCC(=O)O", "values": [{"measurement": "ID50", "setting": "[1]", "result": 27, "unit": "µM"}]}
